Patent US4544747A, “Quinoline carboxylic acid derivatives” (Otsuka Pharmaceutical Company, Limited, priority 1979, dated 1985)
≈ marks a conversion by molar mass, not a printed value.

Tests used:
[1] = test system: rats; experiment: Acute toxicity test, oral, rats; settings: rats (Wister strain, male)
[2] = test system: Colletotrichum lagenarium; experiment: Antimicrobial-activity test 2, mycelial disc on agar plate, fungi (K: anthracnose of cucumber); type: cell-based; settings: Colletotrichum orbiculare, 48 h, complete inhibition of mycelial growth, 2 days, PDA medium, read-out: Minimum inhibitory concentration
Text: K: Anthracnose of cucumber (Colletotrichum lagenarium)

[3] = test system: Alternaria solani; experiment: Antimicrobial-activity test 2, mycelial disc on agar plate, fungi (N: early blight of tomato); type: cell-based; settings: 48 h, complete inhibition of mycelial growth, 2 days, PDA medium, read-out: Minimum inhibitory concentration
Text: N: Early blight of tomato (Alternaria solani)

[4] = test system: Xanthomonas citri; experiment: Antimicrobial-activity test 2, agar dilution plate method, bacteria (D: citrus canker); settings: read-out: Minimum inhibitory concentration
[5] = test system: Pseudomonas solanacearum; experiment: microbe, parasite or virus in culture; type: cell-based; settings: Ralstonia solanacearum, read-out: Minimum inhibitory concentration
[6] = test system: Mycosphaerella melonis; experiment: Antimicrobial-activity test 2, mycelial disc on agar plate, fungi (M: gummy stem blight of melon); type: cell-based; settings: 48 h, complete inhibition of mycelial growth, 2 days, PDA medium, read-out: Minimum inhibitory concentration
Text: […] blight of melon (Mycosphaerella melonis)

[7] = test system: Phytophthora capsici; experiment: Antimicrobial-activity test 2, mycelial disc on agar plate, fungi (J: leaf blight of cucumber); type: cell-based; settings: 48 h, complete inhibition of mycelial growth, 2 days, PDA medium, read-out: Minimum inhibitory concentration
Text: J: Leaf blight of cucumber (Phytophthora capsici)

[8] = test system: Pyrisularia oryzae; experiment: microbe, parasite or virus in culture; type: cell-based; settings: Pyricularia oryzae, 48 h, read-out: Minimum inhibitory concentration
[9] = test system: Erwinia carotovora; experiment: Antimicrobial-activity test 2, agar dilution plate method, bacteria (A: soft rot of vegetable); type: cell-based; settings: Pectobacterium carotovorum, 10^8 cells/ml, PDA medium, read-out: Minimum inhibitory concentration
Text: A: Soft rot of vegetable (Erwinia carotovora)

[10] = test system: Xanthomonas pruni; experiment: Antimicrobial-activity test 2, agar dilution plate method, bacteria (C: peach bacterial spot); type: cell-based; settings: Xanthomonas arboricola, 10^8 cells/ml, PDA medium, read-out: Minimum inhibitory concentration
Text: C: Peach bacterial spot (Xanthomonas pruni)

[11] = test system: Erwinia carotovora (soft-rot causing bacterium); experiment: Antimicrobial-activity test 3, incidence of soft rot on inoculated Japanese radish disks; settings: 28° C.
[12] = test system: Pseudomonas lachrymans; experiment: Antimicrobial-activity test 2, agar dilution plate method, bacteria (F: angular leaf spot of cucumber); type: cell-based; settings: 10^8 cells/ml, PDA medium, read-out: Minimum inhibitory concentration
Text: F: Angular leaf spot of cucumber (Pseudomonas lachrymans)

[13] = test system: Helminthosporium oryzae; experiment: Antimicrobial-activity test 2, mycelial disc on agar plate, fungi (H: Helminthosporium leaf spot); settings: Bipolaris oryzae, 48 h, read-out: Minimum inhibitory concentration
[14] = test system: Xanthomonas oryzae; experiment: microbe, parasite or virus in culture; type: cell-based; settings: read-out: Minimum inhibitory concentration
[15] = test system: Phytophthora melonis; experiment: microbe, parasite or virus in culture; type: cell-based; settings: 48 h, read-out: Minimum inhibitory concentration
[16] = test system: Sclerotinia sclerotiorum; experiment: Antimicrobial-activity test 2, mycelial disc on agar plate, fungi (L: stem rot of eggplant); type: cell-based; settings: 48 h, complete inhibition of mycelial growth, 2 days, PDA medium, read-out: Minimum inhibitory concentration
Text: L: Stem rot of eggplant (Sclerotinia sclerotiorum)

[17] = 15.6 μg/ml, test specimen 1, 24 hours
[18] = 15.6 μg/ml, test specimen 2, 24 hours
[19] = 15.6 μg/ml, test specimen 3, 24 hours
[20] = 15.6 μg/ml, test specimen 4, 24 hours
[21] = 15.6 μg/ml, test specimen 5, 24 hours
[22] = 31.3 μg/ml, test specimen 1, 24 hours
[23] = 31.3 μg/ml, test specimen 2, 24 hours
[24] = 31.3 μg/ml, test specimen 3, 24 hours
[25] = 31.3 μg/ml, test specimen 4, 24 hours
[26] = 31.3 μg/ml, test specimen 5, 24 hours
[27] = 62.5 μg/ml, test specimen 1, 24 hours
[28] = 62.5 μg/ml, test specimen 2, 24 hours
[29] = 62.5 μg/ml, test specimen 3, 24 hours
[30] = 62.5 μg/ml, test specimen 4, 24 hours
[31] = 62.5 μg/ml, test specimen 5, 24 hours
[32] = 125 μg/ml, test specimen 1, 24 hours
[33] = 125 μg/ml, test specimen 2, 24 hours
[34] = 125 μg/ml, test specimen 3, 24 hours
[35] = 125 μg/ml, test specimen 4, 24 hours
[36] = 125 μg/ml, test specimen 5, 24 hours

Row | Structure (SMILES) | estimated LD50 [1] | Disease incidence index [11, 17] | Disease incidence index [11, 18] | Disease incidence index [11, 19] | Disease incidence index [11, 20] | Disease incidence index [11, 21] | Disease incidence index [11, 22] | Disease incidence index [11, 23] | Disease incidence index [11, 24] | Disease incidence index [11, 25] | Disease incidence index [11, 26] | Disease incidence index [11, 27] | Disease incidence index [11, 28] | Disease incidence index [11, 29] | Disease incidence index [11, 30] | Disease incidence index [11, 31] | Disease incidence index [11, 32] | Disease incidence index [11, 33] | Disease incidence index [11, 34] | Disease incidence index [11, 35] | further results
1 | CCn1cc(C(=O)O)c(=O)c2ccc(N3CCNCC3)c(C)c21 [Compound 1, 1-Ethyl-7-(1-piperazinyl)-8-methyl-4-oxo-1,4-dihydroquinoline-3-carboxylic acid] | not less than 500 mg/kg | – | – | – | – | – | – | – | – | – | – | – | – | – | – | – | – | – | – | – | –
2 | CCn1cc(C(=O)O)c(=O)c2ccc(Cl)c(C)c21 [Compound 2, 1-ethyl-7-chloro-8-methyl-4-oxo-1,4-dihydroquinoline-3-carboxylic acid] | not less than 500 mg/kg | 0 (0) | 1 (0< ≤1/3) | 1 (0< ≤1/3) | 1 (0< ≤1/3) | 1 (0< ≤1/3) | 0 (0) | 0 (0) | 0 (0) | 1 (0< ≤1/3) | 1 (0< ≤1/3) | 0 (0) | 0 (0) | 0 (0) | 0 (0) | 1 (0< ≤1/3) | 0 (0) | 0 (0) | 0 (0) | 0 (0) | MIC [2]: 100 µg/mL (≈ 376 µM); MIC [3]: 50 µg/mL (≈ 188 µM); MIC [4]: 0.1 µg/mL (≈ 0.376 µM); MIC [5]: 0.1 µg/mL (≈ 0.376 µM); MIC [6]: 50 µg/mL (≈ 188 µM); MIC [7]: 25 µg/mL (≈ 94.1 µM); MIC [8]: 50 µg/mL (≈ 188 µM); MIC [9]: 0.2 µg/mL (≈ 0.753 µM); MIC [10]: 0.4 µg/mL (≈ 1.51 µM); Disease incidence index [11, 36]: 1 (0< ≤1/3); MIC [12]: 100 µg/mL (≈ 376 µM); MIC [13]: 50 µg/mL (≈ 188 µM); MIC [14]: 0.2 µg/mL (≈ 0.753 µM); MIC [15]: 12.5 µg/mL (≈ 47 µM); MIC [16]: 100 µg/mL (≈ 376 µM)
3 | [H]/N=C(/N)N[C@H]1[C@H](O)[C@@H](O)[C@H](O[C@@H]2O[C@@H](C)[C@](O)(C=O)[C@H]2O[C@@H]2O[C@@H](CO)[C@H](O)[C@@H](O)[C@@H]2NC)[C@@H](N/C(N)=N\[H])[C@@H]1O [Streptomycin, reference compound] | – | 3 | 3 | 3 | 3 | 3 | 2 | 2 | 3 | 3 | 3 | 1 (0< ≤1/3) | 1 (0< ≤1/3) | 2 | 2 | 2 | 1 (0< ≤1/3) | 1 (0< ≤1/3) | 1 (0< ≤1/3) | 1 (0< ≤1/3) | Disease incidence index [11, 36]: 1 (0< ≤1/3)
